In patent US8957093B2, “N-biphenylmethylindole modulators of PPARG” (The Scripps Research Institute, priority 2011, dated 2015):
Where two headings read alike, the source gives them in different places.

What was measured:
GST-PPARG-LBD = GST-PPARG-LBD (Homo sapiens (Human), UniProt P37231); assay: Lanthascreen PPARG competitive binding assay (Invitrogen, TR-FRET); conditions: NA = not active, inc = incomplete curve, read-out: IC50 (nM) Lantha
Summary of the method: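 TR-FRET competitive binding of GST-PPARG-LBD with 5 nM Tb-GST-antibody and 5 nM Fluormone Pan-PPAR Green tracer, in TR-FRET buffer C. Compound serially diluted from 10 μM, 2 h dark incubation, in triplicate. Readout is 520/490 nm emission ratio (340 nm excitation), expressed as fold change over 2% DMSO control.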

[1] = system: PPARG (murine PPARg2 or full-length human PPARG, 3xPPRE-luciferase reporter); assay: Cell-based PPRE-luciferase transactivation assay in COS-1 cells; conditions: for EC50: PPRE-luciferase, COS-1 cells, NA = not active, read-out: EC50 (nM) PPRE
Experimental: Cell-Based Transactivation Assay:
PPRE is a DNA that contains a binding site for PPARG; thus PPRE is a PPAR response element, used herein as a promoter reporter. The binding site is a DR1 response element with the sequence AGGTCA repeated 3 times in tandem and then fused to a construct for luciferase.
Thus, PPRE is the basis of the cell based transactivation assay described below. The plasmid DNA is co-transfected along with a plasmid for PPARG into COS-1 cells. After an overnight incubation, cells are treated with DMSO or compounds.
Confluent COS-1 cells were transfected with 4.5 μg murine PPARg2-pSV Sport or full-length human PPAR9-pSport6, 4.5 μg 3×PPRE-luciferase reporter and 27 μL X-treme Gene 9 transfection reagent in serum-free opti-mem media (Gibco), followed by overnight incubation at 37° C., 5% CO2. Transfected cells were plated in white Perkin Elmer 384-well plates and incubated 4 hours. […] After 18 hour incubation, treated cells were developed with Brite Lite Plus (Perkin Elmer) and read in 384-well Luminescence Perkin Elmer EnVision Multilabel plate reader. Graphs were plotted in triplicate in GraphPad Prism Software as fold change of treated cells over DMSO control cells.

[2] = molecular target: Gal-4-PPAR (human PPAR LBD fused to GAL4 DNA-binding domain) (Homo sapiens (Human), UniProt P37231); assay: GAL4-PPARG LBD / UAS-luciferase transactivation assay in HEK 293T cells; assay type: cell-based; conditions: for activation at 10 µM: HEK-293T, 18 h, read-out: % transactivation at 10 μM (GAL4)
Chain of Gal-4-PPAR (human PPAR LBD fused to GAL4 DNA-binding domain) (P37231 238-503): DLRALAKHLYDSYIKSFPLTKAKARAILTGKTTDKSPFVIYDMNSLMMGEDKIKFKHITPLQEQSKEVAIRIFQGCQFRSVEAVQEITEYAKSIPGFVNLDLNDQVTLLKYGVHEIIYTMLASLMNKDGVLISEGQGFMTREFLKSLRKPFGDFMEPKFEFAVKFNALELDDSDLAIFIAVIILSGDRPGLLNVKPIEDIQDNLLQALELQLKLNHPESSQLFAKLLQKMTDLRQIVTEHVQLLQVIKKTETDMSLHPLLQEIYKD

[3] = Lanthascreen competitive binding
[4] = Lanthascreen PPARG competitive binding
[5] = GAL4 transactivation, read-out: EC50 (nM) GAL4

Chain of GST-PPARG-LBD (P37231 238-503): as above

Compound: Cc1c(C)n(Cc2ccc(-c3ccccc3C#N)cc2)c2ccc(C(=O)N[C@@H](C)c3ccc(Br)cc3)cc12 [Example 35, (S)—N-(1-(4-Bromophenyl)ethyl)-1-((2′-cyano-[1,1′-biphenyl]-4-yl)methyl)-2,3-dimethyl-1H-indole-5-carboxamide]
- IC50 (GST-PPARG-LBD; [3]): 40 nM
- EC50 [1]: 380 nM
- PPRE transactivation (% in parentheses) ([1]; rosiglitazone = 100%): (9%)

Compound: CCC(NC(=O)c1ccc2c(c1)c(C)c(C)n2Cc1ccc(-c2ccccc2-c2nnn[nH]2)cc1)c1ccccc1 (stereo not shown) [Example 36, 1-((2′-(1H-Tetrazol-5-yl)-[1,1′-biphenyl]-4-yl)methyl)-2,3-dimethyl-N-(1-phenylpropyl)-1H-indole-5-carboxamide]
- IC50 (GST-PPARG-LBD; [3]): 6 nM
- EC50 [1]: 2 nM
- PPRE transactivation (% in parentheses) ([1]; rosiglitazone = 100%): (23%)

Compound: Cc1c(C)n(Cc2ccc(-c3ccccc3-c3nnn[nH]3)cc2)c2ccc(C(=O)N[C@@H](C)c3ccc(Br)cc3)cc12 [Example 37, (S)-1-((2′-(1H-tetrazol-5-yl)-[1,1′-biphenyl]-4-yl)methyl)-N-(1-(4-bromophenyl)ethyl)-2,3-dimethyl-1H-indole-5-carboxamide]
- IC50 (GST-PPARG-LBD; [3]): > 1000 nM
- EC50 [1]: 1000 nM
- PPRE transactivation (% in parentheses) ([1]; rosiglitazone = 100%): (19%)

Compound: C[C@H](NC(=O)c1ccc2c(ccn2Cc2ccc(-c3ccc(O)cc3)cc2)c1)c1ccc([N+](=O)[O-])cc1 [Example 47, (S)-1-((4′-Hydroxy-[1,1′-biphenyl]-4-yl)methyl)-N-(1-(4-nitrophenyl)ethyl)-1H-indole-5-carboxamide]
- IC50 (GST-PPARG-LBD; [3]): 300 nM
- PPRE transactivation (% in parentheses) ([1]; rosiglitazone = 100%): (0%)

Compound: CCC(NC(=O)c1ccc2c(ccn2Cc2cccc(-c3ccccc3C(=O)O)c2)c1)c1ccccc1 (stereo not shown) [Example 65, 3′-((5-((1-phenylpropyl)carbamoyl)-1H-indol-1-yl)methyl)-[1,1′-biphenyl]-2-carboxylic acid]
- IC50 (GST-PPARG-LBD; [3]): 6 nM
- EC50 [1]: 116 nM
- PPRE transactivation (% in parentheses) ([1]; rosiglitazone = 100%): (18%)

Compound: CCC(NC(=O)c1ccc2c(ccn2Cc2cccc(-c3ccc(C(=O)O)cc3)c2)c1)c1ccccc1 (stereo not shown) [Example 67, 3′-((5-((1-Phenylpropyl)carbamoyl)-1H-indol-1-yl)methyl)-[1,1′-biphenyl]-4-carboxylic acid]
- IC50 (GST-PPARG-LBD; [3]): 2 nM
- EC50 [1]: 2 nM
- PPRE transactivation (% in parentheses) ([1]; rosiglitazone = 100%): (8%)

Compound: CCC(NC(=O)c1ccc2c(ccn2Cc2ccccc2-c2cccc(C(=O)O)c2)c1)c1ccccc1 (stereo not shown) [Example 69, 2′-((5-((1-Phenylpropyl)carbamoyl)-1H-indol-1-yl)methyl)-[1,1′-biphenyl]-3-carboxylic acid]
- IC50 (GST-PPARG-LBD; [3]): 4 nM
- PPRE transactivation (% in parentheses) ([1]; rosiglitazone = 100%): (0%)

Compound: CCC(NC(=O)c1ccc2c(ccn2Cc2ccccc2-c2ccc(C(=O)O)cc2)c1)c1ccccc1 (stereo not shown) [Example 70, 2′-((5-((1-Phenylpropyl)carbamoyl)-1H-indol-1-yl)methyl)-[1,1′-biphenyl]-4-carboxylic acid]
- IC50 (GST-PPARG-LBD; [3]): 10 nM
- PPRE transactivation (% in parentheses) [1]: (0%)

Compound: Cc1c(C)n(Cc2ccc(-c3ccccc3C(=O)O)cc2)c2ccc(C(=O)NC[C@H](C)c3ccccc3)cc12 [Example 74, (R)-4′-((2,3-dimethyl-5-(2-phenylpropylcarbamoyl)-1H-indol-1-yl)methyl)biphenyl-2-carboxylic acid]
- IC50 (GST-PPARG-LBD; [3]): 76 nM
- EC50 [1]: 300 nM
- PPRE transactivation (% in parentheses) ([1]; rosiglitazone = 100%): (26%)

Compound: Cc1c(C)n(Cc2ccc(-c3ccccc3C(=O)O)cc2)c2ccc(C(=O)NCc3ccc(F)c(F)c3)cc12 [Example 77, 4′-((5-(3,4-difluorobenzylcarbamoyl)-2,3-dimethyl-1H-indol-1-yl)methyl)biphenyl-2-carboxylic acid]
- EC50 [1]: 95 nM
- PPRE transactivation (% in parentheses) ([1]; rosiglitazone = 100%): (20%)

Compound: Cc1c(C)n(Cc2ccc(-c3ccccc3C(=O)O)cc2)c2ccc(C(=O)N[C@@H](C)c3c(F)cccc3C(F)(F)F)cc12 [Example 300, (S)-4′-((5-((1-(2-Fluoro-6-(trifluoromethyl)phenyl)ethyl)carbamoyl)-2,3-dimethyl-1H-indol-1-yl)methyl)-[1,1′-biphenyl]-2-carboxylic acid]
- IC50 (GST-PPARG-LBD; [4]): 9 nM
- EC50 [2, 5]: 167 nM
- activation at 10 µM [2]: 15%

Compound: Cc1c(C)n(Cc2ccc(-c3ccccc3C(=O)O)cc2)c2ccc(C(=O)N[C@@H](C)c3cc(F)c(F)cc3F)cc12 [Example 301, (S)-4′-((2,3-Dimethyl-5-((1-(2,4,5-trifluorophenyl)ethyl)carbamoyl)-1H-indol-1-yl)methyl)-[1,1′-biphenyl]-2-carboxylic acid]
- IC50 (GST-PPARG-LBD; [4]): 8 nM
- EC50 [2, 5]: 198 nM
- activation at 10 µM [2]: 40%

Compound: Cc1c(C)n(Cc2ccc(-c3ccccc3C(=O)O)cc2)c2ccc(C(=O)N[C@@H](C)c3cc(C(F)(F)F)ccc3Cl)cc12 [Example 302, (S)-4′-((5-((1-(2-Chloro-5-(trifluoromethyl)phenyl)ethyl)carbamoyl)-2,3-dimethyl-1H-indol-1-yl)methyl)-[1,1′-biphenyl]-2-carboxylic acid]
- IC50 (GST-PPARG-LBD; [4]): 3 nM
- EC50 [2, 5]: 48 nM
- activation at 10 µM [2]: 20%

Compound: Cc1c(C)n(Cc2ccc(-c3ccccc3C(=O)O)cc2)c2ccc(C(=O)N[C@@H](C)c3ccc(Cl)cc3Cl)cc12 [Example 303, (S)-4′-((5-((1-(2,4-Dichlorophenyl)ethyl)carbamoyl)-2,3-dimethyl-1H-indol-1-yl)methyl)-[1,1′-biphenyl]-2-carboxylic acid]
- IC50 (GST-PPARG-LBD; [4]): 4 nM
- EC50 [2, 5]: 219 nM
- activation at 10 µM [2]: 25%

Compound: Cc1c(C)n(Cc2ccc(-c3ccccc3C(=O)O)cc2)c2ccc(C(=O)N[C@@H](C)c3ccc(C4CC4)cc3)cc12 [Example 304, (S)-4′-((5-((1-(4-Cyclopropylphenyl)ethyl)carbamoyl)-2,3-dimethyl-1H-indol-1-yl)methyl)-[1,1′-biphenyl]-2-carboxylic acid]
- IC50 (GST-PPARG-LBD; [4]): 50 nM
- EC50 [2, 5]: 2420 nM
- activation at 10 µM [2]: 15%

Compound: CNC(=O)c1ccccc1-c1ccc(Cn2c(C)c(C)c3cc(C(=O)N[C@@H](C)c4cccc(C(C)C)c4)ccc32)cc1 [Example 311, (S)—N-(1-(3-Isopropylphenyl)ethyl)-2,3-dimethyl-1-((2′-(methylcarbamoyl)-[1,1′-biphenyl]-4-yl)methyl)-1H-indole-5-carboxamide]
- IC50 (GST-PPARG-LBD; [4]): 76 nM
- EC50 [2, 5]: 441 nM
- activation at 10 µM [2]: 10%

Compound: Cc1c(C)n(Cc2ccc(-c3ccccc3C(=O)N(C)C)cc2)c2ccc(C(=O)N[C@@H](C)c3cccc(C(C)C)c3)cc12 [Example 312, (S)-1-((2′-(Dimethylcarbamoyl)-[1,1′-biphenyl]-4-yl)methyl)-N-(1-(3-isopropylphenyl)ethyl)-2,3-dimethyl-1H-indole-5-carboxamide]
- IC50 (GST-PPARG-LBD; [4]): 148 nM
- EC50 [2, 5]: 914 nM
- activation at 10 µM [2]: 10%

Compound: Cc1c(C)n(Cc2ccc(-c3ccccc3C(=O)NO)cc2)c2ccc(C(=O)N[C@@H](C)c3cccc(C(C)C)c3)cc12 [Example 313]
- IC50 (GST-PPARG-LBD; [4]): 77 nM
- EC50 [2]: 242 nM
- activation at 10 µM [2]: 4%

Compound: Cc1c(C)n(Cc2ccc(-c3ccccc3C(=O)NS(C)(=O)=O)cc2)c2ccc(C(=O)N[C@@H](C)c3cccc(C(C)C)c3)cc12 [Example 314, (S)—N-(1-(3-Isopropylphenyl)ethyl)-2,3-dimethyl-1-((2′-((methylsulfonyl)carbamoyl)-[1,1′-biphenyl]-4-yl)methyl)-1H-indole-5-carboxamide]
- IC50 (GST-PPARG-LBD; [4]): 285 nM
- EC50 [2, 5]: 1650 nM
- activation at 10 µM [2]: 5%

Compound: Cc1c(C)n(Cc2ccc(-c3ccccc3C(N)=O)cc2)c2ccc(C(=O)N[C@@H](C)c3cccc(C(C)C)c3)cc12 [Example 315, (S)-1-((2′-Carbamoyl-[1,1′-biphenyl]-4-yl)methyl)-N-(1-(3-isopropylphenyl)ethyl)-2,3-dimethyl-1H-indole-5-carboxamide]
- IC50 (GST-PPARG-LBD; [4]): 62 nM
- EC50 [2]: 137 nM
- activation at 10 µM [2]: 2%

Compound: Cc1c(C)n(Cc2ccc(-c3ccccc3C(=O)O)cc2)c2ccc(C(=O)NCc3ccc(OC(F)(F)F)cc3)cc12 [compound 15, 4′-((2,3-Dimethyl-5-(4-(trifluoromethoxy)benzylcarbamoyl)-1H-indol-1-yl)methyl)biphenyl-2-carboxylic acid]
- EC50 [1]: 83 nM
- PPRE transactivation (% in parentheses) ([1]; rosiglitazone = 100%): (20%)
